Reference: ChEMBL document CHEMBL1129871, “INVESTIGATION OF BIOISOSTERS OF THE GROWTH HORMONE SECRETAGOGUE L-692,429” (Bioorg Med Chem Lett, 1997)
Non-standard residues stand in square brackets, D forms with d. Residues, ends and D or L forms follow the SMILES beside them.

Species on record: Rattus norvegicus
Assay: The compound was tested in vitro for the growth hormone release in rat pituitary cell assays
Type: functional, Pituitary gland cell
[1] = Rattus norvegicus, Pituitary gland cell

Structure (SMILES) | EC50 [1] | EC50 (pituitary gland cell)
Cc1noc(-c2ccccc2-c2ccc(CN3C(=O)[C@H](NC(=O)CC(C)(C)N)CCc4ccccc43)cc2)n1 | 1050 nM | 
Cn1ncnc1-c1ccccc1-c1ccc(CN2C(=O)[C@H](NC(=O)CC(C)(C)N)CCc3ccccc32)cc1 | 265 nM | 
CC(C)(N)CC(=O)N[C@@H]1CCc2ccccc2N(Cc2ccc(-c3sccc3-c3nn[nH]n3)cc2)C1=O | 140 nM | 
CC(C)(N)CC(=O)N[C@@H]1CCc2ccccc2N(Cc2ccc(-c3cscc3-c3nn[nH]n3)cc2)C1=O | 150 nM | 
CC(C)(N)CC(=O)N[C@@H]1CCc2ccccc2N(Cc2ccc(-n3cccc3-c3nn[nH]n3)cc2)C1=O | 275 nM | 
CC(C)(N)CC(=O)N[C@@H]1CCc2ccccc2N(Cc2ccc(-c3ccccc3-c3nc[nH]n3)cc2)C1=O | 90 nM | 
CC(C)(N)CC(=O)N[C@@H]1CCc2ccccc2N(Cc2ccc(-c3cccnc3-c3nn[nH]n3)cc2)C1=O | 2350 nM | 
COc1nsnc1-c1ccccc1-c1ccc(CN2C(=O)[C@H](NC(=O)CC(C)(C)N)CCc3ccccc32)cc1 | 1800 nM | 
CC(C)(N)CC(=O)N[C@@H]1CCc2ccccc2N(Cc2ccc(-c3ccccc3-c3ncno3)cc2)C1=O | 30 nM | 
CC(C)(N)CC(=O)N[C@@H]1CCc2ccccc2N(Cc2ccc(-c3ccccc3-c3nn[nH]n3)cc2)C1=O |  | 125 nM
Cc1nnc(-c2cscc2-c2ccc(CN3C(=O)[C@H](NC(=O)CC(C)(C)N)CCc4ccccc43)cc2)o1 | 125 nM | 
CC(C)(N)CC(=O)N[C@@H]1CCc2ccccc2N(Cc2ccc(-c3ccccc3C(=O)O)cc2)C1=O | 2500 nM | 
C[C@H](NC(=O)[C@@H](Cc1c[nH]c2ccccc12)NC(=O)[C@@H](N)Cc1c[nH]cn1)C(=O)N[C@@H](Cc1c[nH]c2ccccc12)C(=O)N[C@H](Cc1ccccc1)C(=O)N[C@@H](CCCCN)C(N)=O (H-H[dW]AW[dF]K-NH2) | 2 nM | 
